From patent US8263606B2 (Xenon Pharmaceuticals Inc., priority 2008, dated 2012)

Key:
sodium channel = assay: Guanidine influx assay (14C-guanidine radiotracer flux, in vitro); assay type: cell-based, human or rat; settings: guanidine influx assay using a known cell line that expresses a sodium channel; activity level class
In short: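 Cells stably expressing human or rat sodium channels (~100,000/well, 20–24 h) were exposed in low-sodium choline buffer to test agent plus aconitine activator and 14C-guanidine at ambient temperature. Intracellular 14C-guanidine was counted by scintillation; IC50 fitted by 4-parameter logistic over half-dilutions around 1 μM.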

CYP3A4 = CYP3A4 (Homo sapiens, UniProt P08684); assay: Cytochrome P450 (CYP450) Inhibition Assay, CYP3A4 (Vivid fluorescence, BOMCC substrate); settings: human, P450 Baculosomes (recombinant CYP3A4), probe BOMCC (Vivid substrate)
Sequence of CYP3A4 (P08684 whole entry): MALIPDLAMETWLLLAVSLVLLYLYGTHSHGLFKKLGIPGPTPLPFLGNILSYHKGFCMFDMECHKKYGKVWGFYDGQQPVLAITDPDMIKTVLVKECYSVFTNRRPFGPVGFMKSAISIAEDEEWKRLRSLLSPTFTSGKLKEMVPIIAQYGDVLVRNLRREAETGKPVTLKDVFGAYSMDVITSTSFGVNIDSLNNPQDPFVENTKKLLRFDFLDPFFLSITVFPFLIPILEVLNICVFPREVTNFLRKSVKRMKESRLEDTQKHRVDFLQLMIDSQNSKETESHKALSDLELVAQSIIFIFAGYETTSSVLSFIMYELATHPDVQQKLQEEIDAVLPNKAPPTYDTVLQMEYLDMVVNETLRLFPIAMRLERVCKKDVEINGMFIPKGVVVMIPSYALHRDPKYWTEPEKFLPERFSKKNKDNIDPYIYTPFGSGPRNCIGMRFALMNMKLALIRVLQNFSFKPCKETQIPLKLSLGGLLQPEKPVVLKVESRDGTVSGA

Row | Structure (SMILES) | IC50 (sodium channel) [nM] | melting point [°C] | inhibition at 10 µM (CYP3A4) [%]
1 | O=C1Nc2ccccc2C12COc1cc(F)c(F)cc12 (stereo not drawn) [Example 3.44, 5,6-difluorospiro[1-benzofuran-3,3′-indol]-2′(1′H)-one] | 1000 to 10000 | > 200 | > 50
2 | O=C1Nc2ccccc2C12COc1cc3c(cc12)CCCC3 (stereo not drawn) [Example 3.45, 5′,6′,7′,8′-tetrahydrospiro[indole-3,3′-naphtho[2,3-b]furan]-2(1′H)-one] | 1000 to 10000 | > 230 | > 50
3 | COCCOc1ccc2c(c1)OCC21C(=O)Nc2ccccc21 (stereo not drawn) [Example 3.46, 6-(2-methoxyethoxy)spiro[1-benzofuran-3,3′-indol]-2′(1′H)-one] | 1000 to 10000 | 172 to 174 | < 50
4 | O=C1Nc2ccccc2C12COc1c2ccc2c1OCCO2 (stereo not drawn) [Example 3.48, 2,3-dihydrospiro[furo[2,3-f][1,4]benzodioxine-7,3′-indol]-2′(1′H)-one] | 1000 to 10000 | > 250 | < 50
5 | O=C1Nc2ccccc2C12COc1cc3nccnc3cc12 (stereo not drawn) [Example 3.51, spiro[furo[2,3-g]quinoxaline-8,3′-indol]-2′(1′H)-one] | 1000 to 10000 | 206 to 207 | < 50
6 | N#Cc1ccc(CN2C(=O)C3(COc4cc5c(cc43)CCO5)c3ccccc32)cc1 (stereo not drawn) [Example 4.23, 4-((2′-oxo-5,6-dihydro-2H-spiro[benzofuro[6,5-b]furan-3,3′-indoline]-1′-yl)methyl)benzonitrile] | 1 to 100 | 69 to 71 | < 50
7 | N#Cc1ccccc1-c1ccc(CN2C(=O)C3(COc4cc5c(cc43)CCO5)c3ccccc32)cc1 (stereo not drawn) [Example 4.24, 4′-[(2′-oxo-5,6-dihydrospiro[benzo[1,2-b:5,4-b′]difuran-3,3′-indol]-1′(2′H)-yl)methyl]biphenyl-2-carbonitrile] | 100 to 1000 | 192 to 194 | < 50
8 | C[C@@H](CN1C(=O)C2(COc3cc4c(cc32)CCO4)c2ccccc21)OCOCc1ccccc1 (stereo partly drawn) [Example 4.25, 1′-{(2S)-2-[(benzyloxy)methoxy]propyl}-5,6-dihydrospiro[benzo[1,2-b:5,4-b′]difuran-3,3′-indol]-2′(1′H)-one] | 100 to 1000 | 49 to 52 | > 50
9 | O=C1N(Cc2ccc3c(c2)OCCO3)c2ccccc2C12COc1cc3c(cc12)CCO3 (stereo not drawn) [Example 4.26, 1′-(2,3-dihydro-1,4-benzodioxin-6-ylmethyl)-5,6-dihydrospiro[benzo[1,2-b:5,4-b′]difuran-3,3′-indol]-2′(1′H)-one] | 1 to 100 | 173 to 175 | < 50
10 | O=C1N(Cc2ccc(C(F)(F)F)o2)c2cccc(Cl)c2C12COc1cc3c(cc12)CCO3 (stereo not drawn) [Example 4.33, 4′-chloro-1′-{[5-(trifluoromethyl)furan-2-yl]methyl}-5,6-dihydrospiro[benzo[1,2-b:5,4-b′]difuran-3,3′-indol]-2′(1′H)-one] | 1 to 100 | 166 to 169 | > 50
11 | O=C1N(Cc2ccccn2)c2ccccc2C12COc1cc3c(cc12)OCCO3 (stereo not drawn) [Example 4.41, 1′-(pyridin-2-ylmethyl)-2,3-dihydrospiro[furo[2,3-g][1,4]benzodioxine-8,3′-indol]-2′(1′H)-one] | 1 to 100 | 208 to 209 | < 50
12 | COc1ccc(CN2C(=O)C3(COc4cc5c(cc43)OCCO5)c3ccccc32)cc1OC (stereo not drawn) [Example 4.46, 1′-(3,4-dimethoxybenzyl)-2,3-dihydrospiro[furo[2,3-g][1,4]benzodioxine-8,3′-indol]-2′(1′H)-one] | 1 to 100 | 209 to 211 | > 50
13 | COc1cc(CN2C(=O)C3(COc4cc5c(cc43)OCCO5)c3ccccc32)cc(OC)c1 (stereo not drawn) [Example 4.47, 1′-(3,5-dimethoxybenzyl)-2,3-dihydrospiro[furo[2,3-g][1,4]benzodioxine-8,3′-indol]-2′(1′H)-one] | 1 to 100 | 192 to 195 | > 50
14 | O=C1N(Cc2ccccn2)c2ccccc2C12COc1cc3c(cc12)OCC3 (stereo not drawn) [Example 4.52, 1′-(pyridin-2-ylmethyl)-6,7-dihydrospiro[benzo[1,2-b:4,5-b′]difuran-3,3′-indol]-2′(1′H)-one] | 1 to 100 | 198 to 200 | < 50
15 | COc1cc2c(cc1F)C1(CO2)C(=O)N(Cc2ccccn2)c2ccccc21 (stereo not drawn) [Example 4.65, 5-fluoro-6-methoxy-1′-(pyridin-2-ylmethyl)spiro[1-benzofuran-3,3′-indol]-2′(1′H)-one] | 100 to 1000 | 142 to 144 | < 50

Results, then the compound that gave them:

Row | IC50 (sodium channel) [nM] | melting point [°C] | inhibition at 10 µM (CYP3A4) [%] | Structure (SMILES)
16 | 1 to 100 | 78 to 82 | < 50 | O=C1N(C[C@H]2CCCO2)c2cccc(Cl)c2C12COc1cc3c(cc12)CCO3 (stereo partly drawn) [Example 4.34, 4′-chloro-1′-[(2R)-tetrahydrofuran-2-ylmethyl]-5,6-dihydrospiro[benzo[1,2-b:5,4-b′]difuran-3,3′-indol]-2′(1′H)-one]
17 | 1 to 100 | 137 to 141 | > 50 | O=C1N(C[C@H]2CCCO2)c2cccc(Br)c2C12COc1cc3c(cc12)CCO3 (stereo partly drawn) [Example 4.35, 4′-bromo-1′-[(2R)-tetrahydrofuran-2-ylmethyl]-5,6-dihydrospiro[benzo[1,2-b:5,4-b′]difuran-3,3′-indol]-2′(1′H)-one]
18 | 1 to 100 | 129 to 131 | < 50 | O=C1N(CC2CCOCC2)c2ccccc2C12COc1cc3c(cc12)OCCO3 (stereo not drawn) [Example 4.37, 1′-(tetrahydro-2H-pyran-4-ylmethyl)-2,3-dihydrospiro[furo[2,3-g][1,4]benzodioxine-8,3′-indol]-2′(1′H)-one]
19 | 1 to 100 | 174 to 176 | < 50 | O=C1N(C[C@H]2CCCO2)c2ccccc2C12COc1cc3c(cc12)OCCO3 (stereo partly drawn) [Example 4.44, 1′-[(2R)-tetrahydrofuran-2-ylmethyl]-2,3-dihydrospiro[furo[2,3-g][1,4]benzodioxine-8,3′-indol]-2′(1′H)-one]
20 | 100 to 1000 | 151 to 156 | < 50 | O=C1N(C[C@H]2CCCO2)c2ccccc2C12COc1cc3c(cc12)CCCO3 (stereo partly drawn) [Example 4.53, 1′-[(2R)-tetrahydrofuran-2-ylmethyl]-6,7-dihydro-5H-spiro[furo[3,2-g]chromene-3,3′-indol]-2′(1′H)-one]
21 | 1000 to 10000 | 137 to 138 | > 50 | Cc1nc2cc3c(cc2s1)C1(CO3)C(=O)N(CCC(C)C)c2ccccc21 (stereo not drawn) [Example 4.56, 2-methyl-1′-(3-methylbutyl)spiro[furo[2,3-f][1,3]benzothiazole-7,3′-indol]-2′(1′H)-one]
22 | 1000 to 10000 | 186 to 187 | > 50 | Cc1nc2cc3c(cc2s1)C1(CO3)C(=O)N(CC2CCOCC2)c2ccccc21 (stereo not drawn) [Example 4.57, 2-methyl-1′-(tetrahydro-2H-pyran-4-ylmethyl)spiro[furo[2,3-f][1,3]benzothiazole-7,3′-indol]-2′(1′H)-one]
23 | 1000 to 10000 | 188 to 190 | < 50 | Cc1nc2cc3c(cc2o1)C1(CO3)C(=O)N(C[C@H]2CCCO2)c2ccccc21 (stereo partly drawn) [Example 4.58, 2-methyl-1′-[(2R)-tetrahydrofuran-2-ylmethyl]spiro[furo[2,3-f][1,3]benzoxazole-7,3′-indol]-2′(1′H)-one]
24 | 1000 to 10000 | 79 to 81 | < 50 | CN1C(=O)COc2cc3c(cc21)C1(CO3)C(=O)N(C[C@H]2CCCO2)c2ccccc21 (stereo partly drawn) [Example 4.59, 1-methyl-1′-[(2R)-tetrahydrofuran-2-ylmethyl]-1H-spiro[furo[3,2-g][1,4]benzoxazine-8,3′-indole]-2,2′(1′H-3H)-dione]
25 | 1000 to 10000 | > 250 | < 50 | Cn1c(=O)oc2cc3c(cc21)C1(CO3)C(=O)N(C[C@H]2CCCO2)c2ccccc21 (stereo partly drawn) [Example 4.60, 1-methyl-1′-[(2R)-tetrahydrofuran-2-ylmethyl]spiro[furo[3,2-f][1,3]benzoxazole-7,3′-indole]-2,2′(1′H,1′H)-dione]
26 | 1000 to 10000 | 151 to 153 | < 50 | COc1cc2c(cc1C)C1(CO2)C(=O)N(C[C@H]2CCCO2)c2ccccc21 (stereo partly drawn) [Example 4.61, 6-methoxy-5-methyl-1′-[(2R)-tetrahydrofuran-2-ylmethyl]spiro[1-benzofuran-3,3′-indol]-2′(1′H)-one]
27 | 1000 to 10000 | 180 to 182 | > 50 | COc1cc2c(cc1C)C1(CO2)C(=O)N(CC2CCCCO2)c2ccccc21 (stereo not drawn) [Example 4.63, 6-methoxy-5-methyl-1′-(tetrahydro-2H-pyran-2-ylmethyl)spiro[1-benzofuran-3,3′-indol]-2′(1′H)-one]
28 | 100 to 1000 | 131 to 133 | < 50 | COc1cc2c(cc1F)C1(CO2)C(=O)N(CC2CCCCO2)c2ccccc21 (stereo not drawn) [Example 4.64, 5-fluoro-6-methoxy-1′-(tetrahydro-2H-pyran-2-ylmethyl)spiro[1-benzofuran-3,3′-indol]-2′(1′H)-one]
29 | 100 to 1000 | 106 to 116 | < 50 | COc1cc2c(cc1F)C1(CO2)C(=O)N(C[C@H]2CCCO2)c2ccccc21 (stereo partly drawn) [Example 4.66, 5-fluoro-6-methoxy-1′-[(2R)-tetrahydrofuran-2-ylmethyl]spiro[1-benzofuran-3,3′-indol]-2′(1′H)-one]
